Patent US9926302B2, “Heteroaryl substituted heterocyclyl sulfones” (priority 2014, dated 2018)

The molecules below were run against T1, Human CaV2.2 channels (Homo sapiens, UniProt Q00975) (assay: Fluorescence assay for CaV2.2 channels using potassium depolarization to induce channel opening (FLIPR, Fluo 4)). Conditions: 3 μM test compound; alternative assay buffer 30 mM KCl (inactivated channel state); HEK293 cells stably expressing human CaV2.2.
T1 construct: expressed in transfected cells
T1 sequence (P54289 947-1103): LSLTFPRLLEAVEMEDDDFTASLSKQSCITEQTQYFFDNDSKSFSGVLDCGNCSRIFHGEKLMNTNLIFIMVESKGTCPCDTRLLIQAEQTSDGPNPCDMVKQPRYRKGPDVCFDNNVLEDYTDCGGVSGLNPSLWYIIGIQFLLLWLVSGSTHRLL
T1 sequence (P54289 25-946): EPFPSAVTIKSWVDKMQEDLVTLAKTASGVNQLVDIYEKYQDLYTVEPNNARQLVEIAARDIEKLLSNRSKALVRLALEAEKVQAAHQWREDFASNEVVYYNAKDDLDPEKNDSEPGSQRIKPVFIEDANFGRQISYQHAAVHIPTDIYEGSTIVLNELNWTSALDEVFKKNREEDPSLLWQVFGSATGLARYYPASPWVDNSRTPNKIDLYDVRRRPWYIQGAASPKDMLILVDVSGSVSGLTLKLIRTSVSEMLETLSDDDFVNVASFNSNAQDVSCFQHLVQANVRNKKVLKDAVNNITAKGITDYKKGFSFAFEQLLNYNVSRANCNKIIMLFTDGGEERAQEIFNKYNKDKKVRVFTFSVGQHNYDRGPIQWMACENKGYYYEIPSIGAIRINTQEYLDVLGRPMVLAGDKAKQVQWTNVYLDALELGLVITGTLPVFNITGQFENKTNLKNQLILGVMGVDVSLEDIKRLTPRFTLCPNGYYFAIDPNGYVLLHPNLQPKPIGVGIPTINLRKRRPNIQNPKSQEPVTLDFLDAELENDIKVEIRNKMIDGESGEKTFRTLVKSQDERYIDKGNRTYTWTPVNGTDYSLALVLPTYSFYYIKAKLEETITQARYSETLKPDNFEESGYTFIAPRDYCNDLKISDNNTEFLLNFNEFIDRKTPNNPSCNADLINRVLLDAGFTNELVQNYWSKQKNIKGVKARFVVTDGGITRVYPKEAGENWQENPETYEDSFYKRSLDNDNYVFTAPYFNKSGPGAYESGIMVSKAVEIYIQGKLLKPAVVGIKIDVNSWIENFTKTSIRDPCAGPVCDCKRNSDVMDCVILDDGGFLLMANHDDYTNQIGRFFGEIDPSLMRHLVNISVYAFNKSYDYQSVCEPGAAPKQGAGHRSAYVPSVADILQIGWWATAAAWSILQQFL
T1 sequence (P54284 whole entry, further chain): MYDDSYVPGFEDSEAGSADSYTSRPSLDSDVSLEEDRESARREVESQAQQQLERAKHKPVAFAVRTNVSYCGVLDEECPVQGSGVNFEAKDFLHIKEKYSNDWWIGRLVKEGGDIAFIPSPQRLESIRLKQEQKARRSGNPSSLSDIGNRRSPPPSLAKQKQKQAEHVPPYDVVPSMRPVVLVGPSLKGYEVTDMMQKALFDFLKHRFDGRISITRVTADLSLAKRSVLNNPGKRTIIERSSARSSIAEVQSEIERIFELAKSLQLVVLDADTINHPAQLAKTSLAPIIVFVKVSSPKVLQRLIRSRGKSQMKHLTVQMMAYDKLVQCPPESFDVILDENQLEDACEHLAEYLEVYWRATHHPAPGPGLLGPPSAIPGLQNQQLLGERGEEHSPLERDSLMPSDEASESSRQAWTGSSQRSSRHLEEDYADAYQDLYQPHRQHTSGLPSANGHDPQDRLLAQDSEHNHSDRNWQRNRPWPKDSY
T1 sequence (Q00975 whole entry): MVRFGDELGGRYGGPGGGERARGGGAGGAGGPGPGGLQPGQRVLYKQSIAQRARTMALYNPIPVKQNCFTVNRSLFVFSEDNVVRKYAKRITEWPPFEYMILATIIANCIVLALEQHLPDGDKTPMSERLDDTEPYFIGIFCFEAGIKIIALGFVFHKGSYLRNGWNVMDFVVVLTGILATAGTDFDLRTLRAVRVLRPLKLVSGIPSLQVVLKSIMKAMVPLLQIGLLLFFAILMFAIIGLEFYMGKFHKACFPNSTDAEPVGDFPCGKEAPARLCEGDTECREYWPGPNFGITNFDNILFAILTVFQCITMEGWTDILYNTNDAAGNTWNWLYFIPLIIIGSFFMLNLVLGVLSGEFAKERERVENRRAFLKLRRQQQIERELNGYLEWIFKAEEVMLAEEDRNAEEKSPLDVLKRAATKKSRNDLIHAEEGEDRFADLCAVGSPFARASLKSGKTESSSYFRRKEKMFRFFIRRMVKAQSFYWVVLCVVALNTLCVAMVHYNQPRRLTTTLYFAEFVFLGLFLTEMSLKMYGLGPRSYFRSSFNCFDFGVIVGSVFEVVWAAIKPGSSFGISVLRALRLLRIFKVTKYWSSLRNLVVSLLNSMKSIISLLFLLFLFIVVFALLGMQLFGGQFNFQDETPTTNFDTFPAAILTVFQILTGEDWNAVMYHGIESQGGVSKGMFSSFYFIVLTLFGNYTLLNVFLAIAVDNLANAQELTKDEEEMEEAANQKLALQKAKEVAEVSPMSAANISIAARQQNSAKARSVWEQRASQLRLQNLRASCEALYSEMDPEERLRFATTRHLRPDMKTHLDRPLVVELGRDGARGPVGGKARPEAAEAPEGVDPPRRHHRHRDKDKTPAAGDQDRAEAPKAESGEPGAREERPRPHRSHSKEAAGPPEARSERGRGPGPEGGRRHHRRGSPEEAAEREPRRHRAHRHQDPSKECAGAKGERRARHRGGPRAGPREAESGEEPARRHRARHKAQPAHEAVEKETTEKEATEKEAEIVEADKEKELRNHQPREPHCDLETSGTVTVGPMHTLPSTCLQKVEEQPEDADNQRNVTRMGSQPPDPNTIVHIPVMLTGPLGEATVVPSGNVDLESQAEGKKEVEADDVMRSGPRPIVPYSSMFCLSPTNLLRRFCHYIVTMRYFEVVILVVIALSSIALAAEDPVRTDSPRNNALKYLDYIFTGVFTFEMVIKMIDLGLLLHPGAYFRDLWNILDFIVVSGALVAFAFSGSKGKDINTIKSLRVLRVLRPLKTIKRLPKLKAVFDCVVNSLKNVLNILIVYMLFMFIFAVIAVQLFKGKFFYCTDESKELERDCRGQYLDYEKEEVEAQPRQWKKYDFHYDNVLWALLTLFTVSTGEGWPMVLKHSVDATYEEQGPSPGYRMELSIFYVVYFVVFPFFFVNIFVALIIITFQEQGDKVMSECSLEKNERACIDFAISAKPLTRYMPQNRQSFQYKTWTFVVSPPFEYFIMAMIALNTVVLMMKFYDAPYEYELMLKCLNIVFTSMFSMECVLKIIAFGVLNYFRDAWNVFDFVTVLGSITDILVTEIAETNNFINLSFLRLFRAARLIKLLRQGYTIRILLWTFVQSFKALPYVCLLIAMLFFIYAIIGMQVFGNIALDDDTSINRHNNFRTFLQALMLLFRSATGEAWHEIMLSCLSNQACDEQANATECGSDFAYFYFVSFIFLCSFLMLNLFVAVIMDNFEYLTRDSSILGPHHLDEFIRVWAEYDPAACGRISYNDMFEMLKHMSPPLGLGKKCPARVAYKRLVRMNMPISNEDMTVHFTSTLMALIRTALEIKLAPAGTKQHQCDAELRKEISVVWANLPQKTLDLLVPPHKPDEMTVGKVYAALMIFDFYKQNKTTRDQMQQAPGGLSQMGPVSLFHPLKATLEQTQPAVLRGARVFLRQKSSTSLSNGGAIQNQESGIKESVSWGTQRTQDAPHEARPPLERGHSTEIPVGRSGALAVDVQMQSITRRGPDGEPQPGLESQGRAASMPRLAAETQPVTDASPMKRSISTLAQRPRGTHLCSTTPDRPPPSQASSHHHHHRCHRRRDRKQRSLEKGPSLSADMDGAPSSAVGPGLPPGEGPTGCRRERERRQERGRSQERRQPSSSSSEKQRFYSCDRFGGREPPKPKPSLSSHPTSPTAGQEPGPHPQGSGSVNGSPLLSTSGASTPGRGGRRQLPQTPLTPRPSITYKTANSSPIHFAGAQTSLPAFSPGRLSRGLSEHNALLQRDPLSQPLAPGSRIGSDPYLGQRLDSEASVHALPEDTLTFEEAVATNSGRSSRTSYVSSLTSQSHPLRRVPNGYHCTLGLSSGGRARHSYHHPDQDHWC
Type: cell-based
From the text: In the process, the Ca^2+ influx is quantified in the FLIPR assay with the aid of a Ca^2+-sensitive dye (type Fluo-4, Molecular Probes Europe BV, Leiden, the Netherlands) in a fluorescent imaging plate reader (FLIPR 3, Molecular Devices, Sunnyvale, USA), as described hereinafter.
2.1 Fluorescence Assay for CaV2.2 Channels Using Potassium Depolarization to Induce Channel Opening
Human CaV2.2 channels were stably expressed in HEK293 cells together with alpha2-delta and beta subunits of voltage gated calcium channels. In addition, an inwardly rectifying potassium channel (Kir2.3) was stably expressed in these cells to augment control of the cell membrane potential by the concentration of extracellular potassium ions. Raise of the extracellular potassium concentration leads to depolarization of the membrane potential and thus regulates the voltage dependent state of CaV2.2 channels. For preparation, cells were seeded in black poly-D-lysine coated 96-well plates (Becton Dickinson, Biocoat 4640) in 100 μL medium [500 mL DMEM/F-12 plus Glutamax (Invitrogen 31331-093) plus 5.5 mL MEM NEAA 100× (Invitrogen 11140-035) plus 50 mL FBS decomplemented (Invitrogen 10270-106) plus 200 μg/mL Geneticin (Invitrogen 10131-027) plus 50 μg/mL Hygromycin B (Invitrogen 10687-010) plus 2 μg/mL Blasticidin (anti-bl5b Invivo-Gen) plus 0.2 μg/mL Puromycin (A 11138-03)] at a cell density of 30.000 cells per well. Plates were incubated at 37° C. (5% CO2) for 20 to 23 h. On the day of experiment medium was discarded and cells were loaded with Fluo 4 by addition of 100 μL of basic assay buffer (10 mM HEPES, 1 mM KCl, 149 mM NaCl, 0.8 mM CaCl2, 1.7 mM MgCl2, 10 mM Glucose, 0.1% BSA. pH 7.4) containing 2 μM Fluo 4 (Molecular Probes; F-14201), 0.01% pluronic acid (Molecular Probes; P-6866) and 2.5 mM probenecid (Molecular Probes; P36400). Cells were incubated in the dark at 25° C. for 60 min. Then dye containing buffer was discarded and 100 μL basic (1 mM KCl) or alternative (30 mM KCl) assay buffer was added. The alternative assay buffer contained altered concentrations of KCl (30 mM) and NaCl (120 mM) and was used in order to promote the inactivated channel state. After that 25 μL of basic or alternative assay buffer with or without test compound were added and cells were incubated again in the dark at 25° C. for 15 min. Fluorescence intensity was measured on a FLIPR 3 instrument (Molecular Devices Corp., Sunnyvale, Calif.) with excitation at 480 nm and emission at 535 nm. After continuously reading fluorescence for 30 sec, 50 μL of basic assay buffer containing 210 mM KCl (NaCl omitted) were added for depolarization. Peak fluorescent signal intensity was determined and the amplitude of the peak signal, normalized to base line, was used to measure channel inhibition by test compounds.
In the case of `CC1(S(=O)(=O)c2cccc(OC(F)(F)F)c2)CCOC(c2ncc(C(F)(F)F)cc2S(C)(=O)=O)C1` (stereo not shown) [SC-221, 3-Methylsulfonyl-2-[4-methyl-4-[[3-(trifluoromethyloxy)-phenyl]sulfonyl]-tetrahydro-pyran-2-yl]-5-(trifluoromethyl)-pyridine], the “Activity Category: %-Inhib (CaV2.2) @3 μM @30 mM KCl” value (from here on “Activity Category: %-Inhib”) is reported as “B (%-Inhibition >75% up to ≤95%)”.
`CC(C)c1nnc(C2CC(C)(S(=O)(=O)c3cccc(C(F)(F)F)c3)CCO2)o1` (single isomer, unassigned) [SC-125, 2-Isopropyl-5-[4-methyl-4-[[3-(trifluoromethyl)phenyl]sulfonyl]-tetrahydro-pyran-2-yl]-[1,3,4]oxadiazole] was tested, and the “Activity Category: %-Inhib” value was “C (%-Inhibition >40% up to ≤75%)”.
`CC1(S(=O)(=O)c2cccc(C(F)(F)F)c2)CCOC(c2ncc(C(F)(F)F)cc2S(C)(=O)=O)C1` (stereo not shown) [SC-356, 3-Methylsulfonyl-2-[4-methyl-4-[[3-(trifluoromethyl)phenyl]sulfonyl]-tetrahydro-pyran-2-yl]-5-(trifluoromethyl)-pyridine] was tested, and the “Activity Category: %-Inhib” value was “A (%-Inhibition >95%)”.
`C[S+]([O-])c1cc(C(F)(F)F)cnc1C1CC(C)(S(=O)(=O)c2cccc(C(F)(F)F)c2)CCO1` (stereo not shown) [SC-231, 3-(Methylsulfinyl)-2-[4-methyl-4-[[3-(trifluoromethyl)phenyl]sulfonyl]-tetrahydro-pyran-2-yl]-5-(trifluoromethyl)-pyridine] was tested, and the “Activity Category: %-Inhib” value was “B (%-Inhibition >75% up to ≤95%)”.
`CCC1(S(=O)(=O)c2cccc(C(F)(F)F)c2)CCOC(c2nnc(C(F)(F)F)o2)C1` (stereo not shown) [SC-240, 2-[4-Ethyl-4-[[3-(trifluoromethyl)phenyl]sulfonyl]-tetrahydro-pyran-2-yl]-5-(trifluoromethyl)-[1,3,4]oxadiazole] was tested, and the “Activity Category: %-Inhib” value was “C (%-Inhibition >40% up to ≤75%)”.
With `CC1(S(=O)(=O)c2cccc(C(F)(F)F)c2)CCOC(c2cnc(C(F)(F)F)nc2)C1` (stereo not shown) [SC-305, 5-[4-Methyl-4-[[3-(trifluoromethyl)phenyl]sulfonyl]-tetrahydro-pyran-2-yl]-2-(trifluoromethyl)-pyrimidine] the “Activity Category: %-Inhib” value was “A (%-Inhibition >95%)”.
For `CC1(S(=O)(=O)c2cccc(C(F)(F)F)c2)CCOC(c2cncc(C(F)(F)F)c2)C1` (single isomer, unassigned) [SC-116, 3-[4-Methyl-4-[[3-(trifluoromethyl)phenyl]sulfonyl]-tetrahydro-pyran-2-yl]-5-(trifluoromethyl)-pyridine], the “Activity Category: %-Inhib” value was “A (%-Inhibition >95%)”.
For `Cc1cc(S(C)(=O)=O)cnc1C1CC(C)(S(=O)(=O)c2cc(F)cc(C(F)(F)F)c2)CCO1` (stereo not shown) [SC-445, 2-[4-[[3-Fluoro-5-(trifluoromethyl)-phenyl]sulfonyl]-4-methyl-tetrahydro-pyran-2-yl]-3-methyl-5-methylsulfonyl-pyridine], the “Activity Category: %-Inhib” value was “C (%-Inhibition >40% up to ≤75%)”.

Same assay, conditions: HEK293, 3 μM test compound; alternative assay buffer 30 mM KCl (inactivated channel state); HEK293 cells stably expressing human CaV2.2; read-out: Activity Category: %-Inhib (CaV2.2) @3 μM @30 mM KCl
Molecule `CC1(S(=O)(=O)c2cccc(C(F)(F)F)c2)CCOC(c2cnc(C3CC3)cn2)C1` (stereo not shown) [SC-327, 2-Cyclopropyl-5-[4-methyl-4-[[3-(trifluoromethyl)phenyl]sulfonyl]-tetrahydro-pyran-2-yl]-pyrazine] has an inhibition at 3 µM of 75 to 95%.
In the case of `CC1(S(=O)(=O)c2cccc(C(F)(F)F)c2)CCOC(c2cccc(C(F)(F)F)n2)C1` (racemic) [SC-351, 2-[4-Methyl-4-[[3-(trifluoromethyl)phenyl]sulfonyl]-tetrahydro-pyran-2-yl]-6-(trifluoromethyl)-pyridine], the inhibition at 3 µM is reported as > 95%.
Work on `CCC1(S(=O)(=O)c2cccc(C(F)(F)F)c2)CCOC(c2cnc(C3CC3)cn2)C1` (stereo not shown) [SC-332, 2-Cyclopropyl-5-[4-ethyl-4-[[3-(trifluoromethyl)phenyl]sulfonyl]-tetrahydro-pyran-2-yl]-pyrazine] yielded an inhibition at 3 µM of 75 to 95%.
For `CC(C)Oc1ccc(C2CC(C)(S(=O)(=O)c3cccc(C(F)(F)F)c3)CCO2)cn1` (stereo not shown) [SC-300, 2-Isopropoxy-5-[4-methyl-4-[[3-(trifluoromethyl)phenyl]sulfonyl]-tetrahydro-pyran-2-yl]-pyridine], the inhibition at 3 µM was > 95%.
Work on `CC1(S(=O)(=O)c2cccc(C(F)(F)F)c2)CCOC(c2nnc(C3CC3)o2)C1` (stereo not shown) [SC-127, 2-Cyclopropyl-5-[4-methyl-4-[[3-(trifluoromethyl)phenyl]sulfonyl]-tetrahydro-pyran-2-yl]-[1,3,4]oxadiazole] yielded an inhibition at 3 µM of 40 to 75%.
In the case of `CC1(S(=O)(=O)c2cccc(C(F)(F)F)c2)CCOC(c2ccc(OC(F)F)nc2)C1` (racemic) [SC-417, 2-(Difluoro-methoxy)-5-[4-methyl-4-[[3-(trifluoromethyl)phenyl]sulfonyl]-tetrahydro-pyran-2-yl]-pyridine], the inhibition at 3 µM is reported as > 95%.
Work on `CCC1(S(=O)(=O)c2cccc(C(F)(F)F)c2)CCOC(c2cccc(C)n2)C1` (stereo not shown) [SC-324, 2-[4-Ethyl-4-[[3-(trifluoromethyl)phenyl]sulfonyl]-tetrahydro-pyran-2-yl]-6-methyl-pyridine] yielded an inhibition at 3 µM of 75 to 95%.
`CC1(S(=O)(=O)c2cccc(OC(F)(F)F)c2)CCOC(c2ncc(C(F)(F)F)cc2S(C)(=O)=O)C1` (stereo not shown) [SC-220, 3-Methylsulfonyl-2-[4-methyl-4-[[3-(trifluoromethyloxy)-phenyl]sulfonyl]-tetrahydro-pyran-2-yl]-5-(trifluoromethyl)-pyridine] was tested, and the inhibition at 3 µM was > 95%.
With `Cc1ccc(C2CC(S(=O)(=O)c3cccc(C(F)(F)F)c3)CCO2)c(C)n1` (stereo not shown) [SC-335, 2,6-Dimethyl-3-[4-[[3-(trifluoromethyl)phenyl]sulfonyl]-tetrahydro-pyran-2-yl]-pyridine] the inhibition at 3 µM was 40 to 75%.
`Cc1cc(S(C)(=O)=O)cnc1C1CC(C)(S(=O)(=O)c2cccc(C(F)(F)F)c2)CCO1` (stereo not shown) [SC-262, 3-Methyl-5-methylsulfonyl-2-[4-methyl-4-[[3-(trifluoromethyl)phenyl]sulfonyl]-tetrahydro-pyran-2-yl]-pyridine] was tested, and the inhibition at 3 µM was 75 to 95%.
In the case of `CC1(S(=O)(=O)c2cccc(C(F)(F)F)c2)CCOC(c2ccc(N3CCCC3)nc2)C1` (stereo not shown) [SC-400, 5-[4-Methyl-4-[[3-(trifluoromethyl)phenyl]sulfonyl]-tetrahydro-pyran-2-yl]-2-pyrrolidin-1-yl-pyridine], the inhibition at 3 µM is reported as > 95%.
For `CC1(S(=O)(=O)c2cccc(C(F)(F)F)c2)CCOC(c2ncc(OC(F)F)cc2S(C)(=O)=O)C1` (stereo not shown) [SC-266, 5-(difluoromethoxy)-2-(4-methyl-4-((3-(trifluoromethyl)phenyl)sulfonyl)tetrahydro-2H-pyran-2-yl)-3-(methylsulfonyl)pyridine], the inhibition at 3 µM was > 95%.
`COc1cc(OC(F)F)c(C2CC(C)(S(=O)(=O)c3cccc(C(F)(F)F)c3)CCO2)cn1` (stereo not shown) [SC-253, 4-(Difluoro-methoxy)-2-methoxy-5-[4-methyl-4-[[3-(trifluoromethyl)phenyl]sulfonyl]-tetrahydro-pyran-2-yl]-pyridine] gave an inhibition at 3 µM of 75 to 95%.
With `COc1cc(S(C)(=O)=O)cnc1C1CC(C)(S(=O)(=O)c2cccc(C(F)(F)F)c2)CCO1` (stereo not shown) [SC-224, 3-Methoxy-5-methylsulfonyl-2-[4-methyl-4-[[3-(trifluoromethyl)phenyl]sulfonyl]-tetrahydro-pyran-2-yl]-pyridine] the inhibition at 3 µM was 75 to 95%.
`CC1(S(=O)(=O)c2cccc(C(F)(F)F)c2)CCOC(c2ncc(S(C)(=O)=O)cc2Cl)C1` (single isomer, unassigned) [SC-130, 3-Chloro-5-methylsulfonyl-2-[4-methyl-4-[[3-(trifluoromethyl)phenyl]sulfonyl]-tetrahydro-pyran-2-yl]-pyridine] was tested, and the inhibition at 3 µM was 75 to 95%.
With `CC1(S(=O)(=O)c2cccc(C(F)(F)F)c2)CCOC(c2ncc(C(F)(F)F)cc2Cl)C1` (racemic) [SC-340, 3-Chloro-2-(4-methyl-4-((3-(trifluoromethyl)phenyl)sulfonyl)tetrahydro-2H-pyran-2-yl)-5-(trifluoromethyl)pyridine] the inhibition at 3 µM was > 95%.
In the case of `CC1(S(=O)(=O)c2cccc(C(F)(F)F)c2)CCOC(c2ncc(C3CC3)cc2Cl)C1` (racemic) [SC-435, 3-Chloro-5-cyclopropyl-2-[4-methyl-4-[[3-(trifluoromethyl)phenyl]sulfonyl]-tetrahydro-pyran-2-yl]-pyridine], the inhibition at 3 µM is reported as > 95%.
